The source of these data is PMC7539012, “Hyperphosphorylated tau aggregation and cytotoxicity modulators screen identified prescription drugs linked to Alzheimer's disease and cognitive functions” (Scientific Reports, 2020).

The structures appear in SMILES notation. Structures can show the parent of a compound that is named as a salt.

One assay has as its system T1, 1N4R p-tau.
T1 construct: made in house; host or cells: E. coli (PIMAX system)
In words: p-tau aggregation modulator screen of 1280-compound library (ThS fluorescence net change over 16 h).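 Further: 30 µM compound with 6 µM p-tau over 16 h.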 It counts as biochemical.
Conditions: not given
Turning to `O=[N+]([O-])O[C@@H]1CO[C@H]2[C@@H]1OC[C@@H]2O` [Isosorbide mononitrate], the ThS net change is reported as 477.
Consider `CC[C@H](C)[C@H]1O[C@]2(CC[C@@H]1C)C[C@@H]1C[C@@H](C/C=C(\C)[C@@H](O[C@H]3C[C@H](OC)[C@@H](O[C@H]4C[C@H](OC)[C@@H](O)[C@H](C)O4)[C@H](C)O3)[C@@H](C)/C=C/C=C3\CO[C@@H]4[C@H](O)C(C)=C[C@@H](C(=O)O1)[C@]34O)O2` [Ivermectin], for which the ThS net change was found to be 543.

The assay is the same for the next values; noted with them: 1280-compound library screen; ThS fluorescence net change over 16 h.
As for `Cc1c(NC(C)C)c(=O)n(-c2ccccc2)n1C.Cl` [Isopyrin hydrochloride], the ThS net change was determined as 380.
For `CC1=C(/C=C/C(C)=C/C=C/C(C)=C\C(=O)O)C(C)(C)CCC1` [Isotretinoin], the ThS net change came to 389.
The molecule `COc1ccc(C(=O)NCc2ccc(OCCN(C)C)cc2)cc1OC` [Itopride] gave a ThS net change of 405.
Turning to `O=C(c1ccccc1)c1ccc2n1CCC2C(=O)O` (stereo not shown) [Ketorolac tromethamine], the ThS net change is listed as 382.
In turn, `COc1c2occc2c(OC)c2c(=O)cc(C)oc12` [Khellin] returned a ThS net change of 389.
Regarding `Nc1nnc(-c2cccc(Cl)c2Cl)c(N)n1` [Lamotrigine], the ThS net change stood at 389.

Staying with this assay, now noted: 1280-compound library screen; […].
For the molecule `O=[N+]([O-])O[C@H]1CO[C@H]2[C@@H]1OC[C@H]2O[N+](=O)[O-]` [Isosorbide dinitrate], the ThS net change is listed as 405.
On the same count and under the same terms, the same measure for `CC(=O)O[C@H]1C[C@H](O[C@H]2[C@@H](O)C[C@H](O[C@H]3[C@@H](O)C[C@H](O[C@H]4CC[C@@]5(C)[C@H](CC[C@@H]6[C@@H]5C[C@@H](O)[C@]5(C)[C@@H](C7=CC(=O)OC7)CC[C@]65O)C4)O[C@@H]3C)O[C@@H]2C)O[C@H](C)[C@H]1O[C@@H]1O[C@H](CO)[C@@H](O)[C@H](O)[C@H]1O` [Lanatoside C]: 411.

Staying with this assay, now noted: p-tau aggregation modulator screen of 1280-compound library; ThS fluorescence net change.
Consider `Cc1cc(NC(=O)C2=C(O)c3ccccc3S(=O)(=O)N2C)no1` [Isoxicam], for which the ThS net change is recorded as 364.
Take `CC(COc1ccccc1)NC(C)C(O)c1ccc(O)cc1` (stereo not shown) [Isoxsuprine hydrochloride]: the ThS net change came to 347.
As to `COC(=O)C1=C(C)NC(C)=C(C(=O)OC(C)C)C1c1cccc2nonc12` (stereo not shown) [Isradipine], the ThS net change is 372.
Take `NC[C@H]1O[C@H](O[C@H]2[C@H](O)[C@@H](O[C@H]3O[C@H](CO)[C@@H](O)[C@H](N)[C@H]3O)[C@H](N)C[C@@H]2N)[C@H](O)[C@@H](O)[C@@H]1O` [Kanamycin A sulfate]: the ThS net change is on record as 374.
Take `CC(=O)N1CCN(c2ccc(OCC3COC(Cn4ccnc4)(c4ccc(Cl)cc4Cl)O3)cc2)CC1` (stereo not shown) [Ketoconazole]: the ThS net change worked out at 350.
On the same count and under the same terms, the same measure for `CC(C(=O)O)c1cccc(C(=O)c2ccccc2)c1` (stereo not shown) [Ketoprofen]: 376.
`CN1CCC(=C2c3ccccc3CC(=O)c3sccc32)CC1` [Ketotifen fumarate] had a ThS net change of 366.
As to `CC(CCc1ccccc1)NCC(O)c1ccc(O)c(C(N)=O)c1` (stereo not shown) [Labetalol hydrochloride], the ThS net change is listed as 353.
`Cc1oncc1C(=O)Nc1ccc(C(F)(F)F)cc1` [Leflunomide] showed a ThS net change of 344.

The same assay, now with this note: p-tau aggregation modulator screen of 1280-compound library; […].
`O.O=C(O)C(O)C(O)C(=O)O.O=C(c1ccc(F)cc1)C1CCN(CCn2c(=O)[nH]c3ccccc3c2=O)CC1` [Ketanserin tartrate hydrate] displayed a ThS net change of 354.
On to `Cl.O[C@@H]1CCCC[C@H]1N1CCC(c2ccccc2)CC1` [L(-)-vesamicol hydrochloride], for which the ThS net change was 360.

Staying with this assay, now noted: p-tau aggregation modulator screen of the compound library, ThS fluorescence net change.
Regarding `CCOC(=O)C1=C(C)NC(C)=C(C(=O)OCC)C1c1ccccc1/C=C/C(=O)OC(C)(C)C` [Lacidipine], the ThS net change is listed as 452.
`Nc1ccn([C@@H]2CS[C@H](CO)O2)c(=O)n1` [Lamivudine] had a ThS net change of 424.
With `Cc1c(OCC(F)(F)F)ccnc1C[S+]([O-])c1nc2ccccc2[nH]1` (stereo not shown) [Lansoprazole], the ThS net change is listed as 510.
`CC(C)OC(=O)CCC/C=C\C[C@@H]1[C@@H](CC[C@@H](O)CCc2ccccc2)[C@H](O)C[C@@H]1O` [Latanoprost] displayed a ThS net change of 519.
